These results are taken from article PMC3200184, “In vitro anti-plasmodial activity of Dicoma anomala subsp. gerrardii (Asteraceae): identification of its main active constituent, structure-activity relationship studies and gene expression profiling” (Malaria Journal, 2011).

Molecules are shown by their SMILES. Where two headings read alike, the source gives them in different places.

Series [1] deals with P. falciparum chloroquine-sensitive D10 strain. As to the kind of experiment: pLDH in vitro anti-malarial assay, D10 strain. The class given is cell-based, Plasmodium falciparum. The settings on record: for IC50: Plasmodium falciparum; for Anti-malarial activity (in words): D10 strain, SAR discussion. On the procedure: (§1) Asexual P. falciparum chloroquine-sensitive 3D7 and D10 cultures, as well as chloroquine-resistant K1 strain cultures, were maintained and synchronized according to established methods in an atmosphere consisting of 5% oxygen, 5% carbon dioxide and 90% nitrogen. The parasites were maintained at a 5% haematocrit in RPMI 1640 medium supplemented with 25 mM HEPES, 22 mM glucose, 0.0088% hypoxanthine, 40 ug/mL gentamycin (all Sigma) and 0.5% Albumax (Invitrogen).
(§2) The anti-plasmodial activities of the extracts and pure compounds were determined against the chloroquine-sensitive D10 and the chloroquine-resistant K1 strains via the parasite lactate dehydrogenase (pLDH) assay. All test substances were stored at -20°C prior to testing. […] Chloroquine diphosphate (Sigma) was used as a reference drug in all experiments. The test substances were evaluated as ten serial two-fold dilutions (0.2 - 100 μg/mL final concentration) in medium (two replicates per concentration point) in duplicate wells. […] Test solutions were mixed with suspensions of infected human red blood cells to achieve a final haematocrit of 1% and parasitaemia of 2% and incubated for 48 h in microtitre plates (250 uL final volume). Incubation conditions were as described above for the routine maintenance of the P. falciparum cultures. The IC50 values, serving as a measure for anti-plasmodial activities, were calculated by non-linear regression dose-response analysis using GraphPad Prism v.4.0 software.

Series [2] deals with P. falciparum chloroquine-resistant K1 strain. As to the kind of experiment: microbe, parasite or virus in culture. The class given is cell-based. Particulars: Plasmodium falciparum. The protocol: as §1, §2
The subject of series [3] is Chinese hamster ovary (CHO) cell line. As to the kind of experiment: MTT in vitro cytotoxicity assay. The settings on record: for IC50: Cricetulus griseus, read-out: CHO IC50 (μM) n = 2; for Mammalian toxicity, CHO (in words): SAR discussion. In kind it is cell-based. The protocol:
Compounds were tested for in vitro cytotoxicity against a Chinese hamster ovary (CHO) cell line using the MTT [3-(4,5-dimethylthiazol-2-yl)-2,5-diphenyltetrazolium bromide] assay. The CHO cells were cultured in DMEM: Hams F-12 medium (1:1) supplemented with 10% heat-inactivated foetal calf serum (FCS) and gentamycin ([…]) (Highveld Biological, RSA). Samples were dissolved in 10% MeOH. Stock solutions (2 mg/mL) were prepared and were stored at -20°C until use. The samples were added to CHO cells as five ten-fold serial dilutions ranging from 100 - 0.01 μg/mL. A serial dilution of emetine (100 - 0.001 μg/mL) was used as a positive control. Cells were seeded in 96-well plates at a concentration of 10^5/mL (100 μL per well) and incubated at 37°C for 24 h in a humidified 5% CO2-air atmosphere. The medium was subsequently aspirated from the wells and replaced with 200 μL of the test compound dilutions. The microplates were incubated at 37°C for 48 h, after which 25 μL of sterile MTT (5 mg/mL in PBS) was added to each well and incubation was continued for 4 h at 37°C. Formazan crystals formed by viable cells were dissolved in DMSO and quantitated by measuring absorbance at 540 nm in a microtitre plate reader (Cambridge Technologies). Cell viabilities were calculated relative to reference wells containing no test compounds (positive cell controls) and no cells (background controls), plotted against log[test sample] and IC50 values derived by non-linear regression analysis using GraphPad Prism v.4.0 software.

In series [4] the test system is P. falciparum 3D7. As to the kind of experiment: Dose-response curves on P. falciparum 3D7 (IC99 for treatment). The class given is cell-based, Plasmodium falciparum. Particulars: P. falciparum 3D7, determined from dose-response curves. The protocol: as §1
A morphological comparison between compound 1 treated versus untreated parasites was performed to assess the effect of treatment and to establish sampling times, by examining the stage-specific progression of parasites across the intra-erythrocytic development cycle. The solvent (DMSO) or compound 1 was added in the window shortly after red blood cell (RBC) invasion and parasite development was monitored 6 hourly over a 48 h period using conventional Giemsa-stained smears. Fresh cultures were scaled up to 50 ml (5% hematocrit, 10% parasitemia), synchronized twice and treated with compound 1 in the window around invasion. Fifteen milliliters of culture was harvested at each of the stages used for transcriptional analyses (2, 6 and 12 hpt). Similar volumes were harvested from untreated P. falciparum 3D7 control cultures at the same time points. Parallel drug treatments were conducted, serving as biological replicates. […]

Series [5] relates to P. falciparum 3D7. As to the kind of experiment: Morphological analysis of treated ring-stage parasites (Giemsa smears). In kind it is cell-based, Plasmodium falciparum. The settings on record: 3D7, treated at early ring stage with 12.5 μM, followed over 48 h. On the procedure: A morphological comparison between compound 1 treated versus untreated parasites was performed to assess the effect of treatment and to establish sampling times, by examining the stage-specific progression of parasites across the intra-erythrocytic development cycle. The solvent (DMSO) or compound 1 was added in the window shortly after red blood cell (RBC) invasion and parasite development was monitored 6 hourly over a 48 h period using conventional Giemsa-stained smears. Fresh cultures were scaled up to 50 ml (5% hematocrit, 10% parasitemia), synchronized twice and treated with compound 1 in the window around invasion. Fifteen milliliters of culture was harvested at each of the stages used for transcriptional analyses (2, 6 and 12 hpt). Similar volumes were harvested from untreated P. falciparum 3D7 control cultures at the same time points. Parallel drug treatments were conducted, serving as biological replicates. RNA was extracted from the frozen erythrocyte pellets as described.
A morphological analysis was performed with dehydrobrachylaenolide to ascertain the point during intra-erythrocytic development at which P. falciparum 3D7 growth was affected. […] Based on these morphological observations and the apparent rapid effect of dehydrobrachylaenolide on P. falciparum development, sampling times for transcriptional analysis were subsequently determined as 2, 6 and 12 hpt. […]

A further series concerns NCI's 60-cell line panel. The arrangement: method as in earlier work. Particulars: selectivity trend towards the leukaemia sub-panel; cited from earlier work.
Series [6] has as its system induction of intracellular adhesion molecule-1 (ICAM-1). Further details: method as in PMID 12762788. Particulars: cited from earlier work.
The mark [7] stands for this setting: D10, 48 h, read-out: D10 IC50 (μM) n = 8.
[8] abbreviates: K1, 48 h, read-out: K1 IC50 (μM) n = 4.
Where [9] appears, read: D10, read-out: D10 strain IC50 (μM) n = 2.
[10] abbreviates: K1, read-out: K1 strain IC50 (μM) n = 2.
The mark [11] stands for this setting: read-out: D10 strain IC50 (μM) n = 2, Table 2, D10, pLDH assay, parent compound n = 8.

The IC50 is the point on the concentration scale where inhibition reaches its midpoint. With `CCN(CC)CCCC(C)Nc1ccnc2cc(Cl)ccc12` (centres unmarked) [Chloroquine, Chloroquine diphosphate, reference compound], the IC50 stood at 0.038 µM in series [1] (setting [7]); 0.2 µM in series [2] (setting [8]); 35.8 µM in series [3] (CHO, 48 h).

As to `C=C1C(=O)C=C[C@]2(C)CC[C@H]3C(=C)C(=O)O[C@H]3[C@@H]12` [Compound 1, 3-oxoeudesma-1,4(15),11(13)-triene-12,6α-lide], the IC50 is 1.86 ± 0.254 µM in series [1] (setting [7]); 1.86 µM in series [1] (setting [9]); 0.455 µg/mL in series [1] (D10, read-out: IC50 against D10 strain); 4.09 ± 0.579 µM in series [2] (setting [8]); 1 µg/mL in series [2] (K1, read-out: IC50 against K1 strain); 4.09 µM in series [2] (setting [10]). Further, the IC50 in series [3] (CHO, 48 h) came out at 17.2 µM; in series [3] (CHO), 17.2 µM. Further, in the series with P. falciparum 3D7 [4], the “IC99 (treatment concentration)” value amounted to 12.5 µM. Moreover, the “Morphological effect on intra-erythrocytic development” value in the series on P. falciparum 3D7 [5] is on record as “Treated parasites remained arrested in the ring phase”. In addition, in the series with NCI's 60-cell line panel, the “Anti-cancer activity (in words)” value is “significant anti-cancer activity”. Moreover, the “Activity toward ICAM-1 induction (in words)” value in series [6] is on record as “inhibitory activity”.

Take `C=C1C(=O)O[C@@H]2C3=C(C)C(=O)C=C[C@]3(C)CC[C@@H]12` [Compound 2, (3aS,5aS,9bS)-5a,9-dimethyl-3-methylene-3a,4,5,5a-tetrahydronaphtho[1,2-b]furan-2,8(3H,9bH)-dione]: the “Anti-malarial activity (in words)” value in series [1] is “six-fold less active”. Also, the results for the IC50 in series [1] (setting [9]), in series [2] (setting [10]) and in series [3] (CHO) were 11.5 µM, 9.05 µM and 7.01 µM, respectively.

As to `CC1=C2[C@H]3OC(=O)[C@@H](C)[C@@H]3CC[C@@]2(C)C=CC1=O` [Compound 3, santonin], the “Anti-malarial activity (in words)” value in series [1] is reported as “devoid of any significant anti-malarial activity”. Moreover, the IC50 in series [1] (setting [9]) was above 40 µM; in series [3] (CHO) it was above 400 µM. In addition, the “Mammalian toxicity, CHO (in words)” value in series [3] (CHO cells) is given as “devoid of any significant anti-malarial activity or mammalian toxicity”.

In the case of `C[C@@H]1C(=O)O[C@H]2[C@H]1CC[C@@]1(C)CCC(=O)[C@H](C)[C@H]21` [Compound 4, (3S,3aS,5aS,9R,9aS,9bS)-3,5a,9-trimethyl-octahydronaphtho[1,2-b]furan-2,8(3H,9bH)-dione], the “Anti-malarial activity (in words)” value in series [1] is “lacking both activity and toxicity”. The IC50 in series [1] (setting [11]) was above 40 µM; in series [3] (Table 2, CHO cells, MTT), above 400 µM. In series [3] (CHO cells), the “Mammalian toxicity, CHO (in words)” value was “lacking both activity and toxicity”.

For the compound `C=C1C(=O)C[C@H]2C1CCC1(C)CCC(=O)C(C)C21` (stereo partly drawn) [Compound 5, (9bS)-5a,9-Dimethyl-3-methyleneoctahydro-1H-cyclopenta[a]naphthalene-2,8(3H,9bH)-dione], the “Anti-malarial activity (in words)” value in series [1] is given as “moderate anti-malarial activity”. Also, the IC50 in series [1] (setting [11]) is 22.1 µM; in series [3] (Table 2, CHO cells, MTT), 124 µM. Also, in series [3] (CHO cells), the “Mammalian toxicity, CHO (in words)” value is listed as “substantially reduced”.

`C=C1C(=O)O[C@@H]2[C@H]3[C@@H](C)C(=O)C=C[C@]3(C)CC[C@@H]12` [Compound 6, (3aS,5aS,9R,9aS,9bS)-5a,9-dimethyl-3-methylene-3a,4,5,5a,9,9a-hexahydronaphtho[1,2-b]furan-2,8(3H,9bH)-dione]: in series [1], the “Anti-malarial activity (in words)” value is reported as “no significant improvement in anti-malarial activity”. The IC50 in series [1] (setting [9]) amounted to 16.9 µM; in series [3] (CHO), 41.9 µM. In addition, in series [3] (CHO cells), the “Mammalian toxicity, CHO (in words)” value was “increased mammalian cell toxicity”.
